{"source": "patent US12350259B2", "about": "“Methods of treating migraine” (Allergan Pharmaceuticals International Limited, priority 2021, dated 2025)", "key": {"[1]": {"assay": "Atogepant-topiramate interaction study, cohort 2: topiramate steady-state PK", "format": "in vivo, human", "details": "for AUC / Cmax: both sexes, human, plasma", "experimental": "An open-label, single-center, multiple-dose 2-cohort, phase 1 trial was carried out to assess the potential of a PK DDI between atogepant and topiramate in healthy adult participants. Eligible participants were enrolled either in cohort 1 to evaluate the effect of topiramate 100 mg twice daily on the PK of atogepant […] once daily or in cohort 2 to evaluate the effect of atogepant 60 mg once daily on the PK of topiramate 100 mg twice daily. Participants in cohort 1 received atogepant alone on days 1-7 and atogepant plus topiramate on days 8-17. Participants in cohort 2 received topiramate alone on days 1-10 and topiramate plus atogepant on days 11-17.\nThe duration of the study was 25 days (±2 days), which included day −1 through the follow-up visit and excluded the screening period. The screening period was up to 21 days before day 1 and the intervention period was a total of 19 days, at which point the end of dosing visit was conducted. Cerebrospinal fluid (CSF) samples for measurement of atogepant concentration were collected via lumbar puncture in a subset of consenting participants in cohort 1. CSF samples were collected once from individual participants in the CSF collection subset at 2 or 6 hours after the morning dose on day 6 for cohort 1. Clinical laboratory tests were performed at the follow-up visit, which was conducted on day 24 (7 [±2] days after the last dose of study medication.\nParticipants were excluded if they had clinically significant abnormal electrocardiogram (ECG) results or QT prolongation (QTcF ≥450 msec for males, ≥470 for females), or any clinical condition or previous surgery that may affect the absorption, distribution, biotransformation, or excretion of atogepant or topiramate.\nThe primary endpoints were area under the plasma concentration-time curve during dosing interval at steady state (AUC0-tau,ss) and maximum plasma drug concentration at steady state (Cmax,ss) of atogepant and topiramate when coadministered and when administered alone. Additional PK parameters included time of maximum plasma drug concentration at steady state (Tmax,ss), average plasma drug concentration at steady state (Cavg,ss), and minimum plasma drug concentration at steady state (Cmin,ss) of topiramate and atogepant when coadministered and when administered alone."}, "[2]": {"details": "topiramate; cited from earlier work"}, "[3]": {"assay": "Atogepant-topiramate interaction study: safety and tolerability", "format": "in vivo, human"}, "[4]": {"assay": "Atogepant-itraconazole interaction study: safety and tolerability", "format": "in vivo, human", "details": "itraconazole alone", "text": "The primary objective of this study was to assess the effects of multiple dose itraconazole on the pharmacokinetics of a single dose of atogepant. The primary endpoints were PK parameters of atogepant derived from plasma concentrations. The secondary objectives of the study were to assess the safety and tolerability of atogepant and itraconazole given alone and in combination, and to establish the correlation between concentrations of atogepant in dried blood sample (DBS) (obtained via finger stick) and plasma. The secondary endpoints included AEs, clinical laboratory parameters, vital signs, ECG, and physical examination, and correlation of concentrations of atogepant in DBS and plasma. Subjects who satisfied the inclusion and exclusion criteria were assigned to a single fixed-treatment sequence in which they received Treatment A followed by Treatment B; there was a 7-day washout period between treatments. • Treatment A: Single oral 60 mg dose of atogepant (tablet) under fasted conditions on Day 1 • Treatment B • Days 8-14: Itraconazole 200 mg (tablet) orally once daily under fed conditions. • Day 15: Itraconazole 200 mg coadministered with atogepant 60 mg (tablet) under fasted conditions. • Days 16 to 17: Itraconazole 200 mg (tablet) once daily under fed conditions."}, "[5]": {"assay": "Atogepant-quinidine gluconate interaction study: safety", "format": "in vivo, human", "details": "during quinidine gluconate administration; 33 enrolled", "text": "Atogepant PK parameters calculated were peak plasma concentration (Cmax); time to Cmax (tmax); and area under plasma concentration—time curve from time 0 to time t (AUC0-t) and infinity (AUC0-∞). […] Safety assessments included clinical laboratory values, vital signs, electrocardiograms, and […] adverse events (TEAEs)."}, "[6]": {"details": "topiramate 100 mg BID + atogepant 60 mg QD, day 17"}, "[7]": {"details": "topiramate 100 mg BID alone, day 10"}, "[8]": {"details": "with atogepant coadministration"}}, "note": "Where two headings read alike, the source gives them in different places.", "data": [{"compound": "CC1(C)O[C@@H]2[C@@H](CO[C@@]3(COS(N)(=O)=O)OC(C)(C)O[C@@H]23)O1", "note": "[topiramate]", "values": [{"measurement": "AUC", "setting": "[1]; 100 mg, Topiramate Alone, read-out: AUC0-tau,ss Geometric LSM", "value": 74400, "unit": "ng·h/mL"}, {"measurement": "Cmax", "setting": "[1]; 100 mg, Topiramate Alone, read-out: Cmax,ss Geometric LSM", "value": 7500, "unit": "ng/mL"}, {"measurement": "AUC", "setting": "[1]; 100 mg, topiramate 100 mg BID alone, day 10, read-out: AUC0-tau,ss", "value": 76500, "unit": "ng·h/mL"}, {"measurement": "Cmax", "setting": "[1]; 100 mg, topiramate 100 mg BID alone, day 10, read-out: Cmax,ss", "value": 7700, "unit": "ng/mL"}, {"measurement": "AUC", "setting": "[1]; Topiramate and Atogepant, read-out: AUC0-tau,ss Geometric LSM", "value": 70300, "unit": "ng·h/mL"}, {"measurement": "Cmax", "setting": "[1]; Topiramate and Atogepant, read-out: Cmax,ss Geometric LSM", "value": 7000, "unit": "ng/mL"}, {"measurement": "AUC", "setting": "[1]; topiramate 100 mg BID + atogepant 60 mg QD, day 17, read-out: AUC0-tau,ss", "value": 72600, "unit": "ng·h/mL"}, {"measurement": "Cmax", "setting": "[1]; topiramate 100 mg BID + atogepant 60 mg QD, day 17, read-out: Cmax,ss", "value": 7300, "unit": "ng/mL"}, {"measurement": "delay of median Tmax,ss of topiramate", "setting": "[1]; coadministered with atogepant", "value": 0.5, "unit": "h"}, {"measurement": "Cavg,ss", "setting": "[1]; [6]", "value": 6000, "unit": "ng/mL"}, {"measurement": "Cmin,ss", "setting": "[1]; [6]", "value": 4700, "unit": "ng/mL"}, {"measurement": "Tmax,ss (median)", "setting": "[1]; [6]", "value": 2.0, "unit": "h"}, {"measurement": "Cavg,ss", "setting": "[1]; [7]", "value": 6400, "unit": "ng/mL"}, {"measurement": "Cmin,ss", "setting": "[1]; [7]", "value": 5200, "unit": "ng/mL"}, {"measurement": "Tmax,ss (median)", "setting": "[1]; [7]", "value": 1.5, "unit": "h"}, {"measurement": "reduction of topiramate AUC0-tau,ss", "setting": "[1]; [8]", "value": 5, "unit": "%"}, {"measurement": "reduction of topiramate Cmax,ss", "setting": "[1]; [8]", "value": 6, "unit": "%"}, {"measurement": "elimination half-life", "setting": "[2]", "value": "approximately 21 hours"}, {"measurement": "Deaths, %", "setting": "[3]; cohort 2, topiramate + atogepant (n = 24)", "value": "(0) %"}, {"measurement": "Deaths, %", "setting": "[3]; cohort 2, topiramate alone (n = 25)", "value": "(0) %"}, {"measurement": "TEAEs leading to discontinuation, %", "setting": "[3]; human, in vivo", "value": "(8.0) %"}, {"measurement": "TESAEs, %", "setting": "[3]; human, in vivo", "value": "(0) %"}, {"measurement": "Treatment-related TEAEs, %", "setting": "[3]; human, in vivo", "value": "(52.0) %"}, {"measurement": "Treatment-related TESAEs, %", "setting": "[3]; human, in vivo", "value": "(0) %"}, {"measurement": "constipation reported", "setting": "[3]; human, in vivo", "value": 2, "unit": "participants"}, {"measurement": "nausea reported", "setting": "[3]; human, in vivo", "value": 3, "unit": "participants"}, {"measurement": "TEAEs, %", "setting": "[3]; human, in vivo, 10 days", "value": "(64.0) %"}]}, {"compound": "CCC(C)n1ncn(-c2ccc(N3CCN(c4ccc(OCC5COC(Cn6cncn6)(c6ccc(Cl)cc6Cl)O5)cc4)CC3)cc2)c1=O", "note": "(stereo not drawn) [itraconazole, reference compound]", "values": [{"measurement": "subjects experiencing constipation (TEAE)", "setting": "[4]", "value": 1, "unit": "subject"}, {"measurement": "subjects experiencing headache (TEAE)", "setting": "[4]", "value": 2, "unit": "subjects"}]}, {"compound": "C=C[C@H]1C[N@@]2CC[C@H]1C[C@@H]2[C@@H](O)c1ccnc2ccc(OC)cc12", "note": "[quinidine gluconate, reference compound]", "values": [{"measurement": "participants discontinued because of TEAEs (all electrocardiogram QT prolongation)", "setting": "[5]", "value": 10}]}]}
